# Results as given in patent publication US12398097B2, “WDR5-MYC inhibitors” (Vanderbilt University, priority 2019, dated 2025).
# Target: WDR5 (Homo sapiens, UniProt P61964)
# Test: Competition-based fluorescence polarization anisotropy assay
# Conditions: binding to WDR5; displacement of FITC-labeled small molecule probe (analogous to Example J2 or HCH-25) or peptide probe FITC-AHx-SEEEIDVVSV; pH 6.0; Ki converted from IC50
# Procedure: Compounds of the present invention were assessed for their ability to bind to WDr5 using a competition-based fluorescence polarization anisotropy assay, similar to the method previously described. […] Fluorescence polarization measurements were performed in 384-well plates (Greiner Bio One) using a Cytation 3 plate reader (BioTek). Fluorescein isothiocyanate (FITC)-labeled peptide probe ([…]) was purchased from GenScript USA Inc and used without further purification. […] The assay buffer contained 200 mM phosphate, 300 mM NaCl, and 0.5 mM TCEP and 0.1% Chaps at pH 6.0. […] This was converted into a binding dissociation constant (Ki value) according to the formula: […] Data shown in the table below represents a K; determined from this method for each Example, using either a fluorescently labeled small molecule probe analogous to Example J2 or Example HCH-25, or the peptide probe described above, in the assay.
row,SMILES,Ki
1,"CNC(=O)c1cc(C2(C#N)CCC2)cc(NS(=O)(=O)c2cc(Br)cc(Cl)c2O)c1O [Example J211, 3-((5-Bromo-3-chloro-2-hydroxyphenyl)sulfonamido)-5-(1-cyanocyclobutyl)-2-hydroxy-N-methylbenzamide]",50 nM
2,"O=C(c1cc(C2CC2)cc(NS(=O)(=O)c2cc(Br)ccc2O)c1O)N1CCOCC1 [Example J85, 5-Bromo-N-(5-cyclopropyl-2-hydroxy-3-(morpholine-4-carbonyl)phenyl)-2-hydroxybenzenesulfonamide]",1440 nM
3,"COc1ccc(Br)cc1S(=O)(=O)Nc1cc(Cl)cc(C(=O)N2CCC[C@H]2CO)c1O [Example J54, (S)-5-Bromo-N-(5-chloro-2-hydroxy-3-(2-(hydroxymethyl)pyrrolidine-1-carbonyl)phenyl)-2-methoxybenzenesulfonamide]",6840 nM
4,"O=C(NCC1CCOC1)c1cc(OC(F)(F)F)cc(NS(=O)(=O)c2cc(Br)ccc2O)c1O (centres unmarked) [Example J166, 3-((5-Bromo-2-hydroxyphenyl)sulfonamido)-2-hydroxy-N-((tetrahydrofuran-3-yl)methyl)-5-(trifluoromethoxy)benzamide]",680 nM
5,"O=C(O)c1c(O)c(NS(=O)(=O)c2cc(Br)ccc2O)cc(C2CC2)c1F [Example J117, 3-((5-Bromo-2-hydroxyphenyl)sulfonamido)-5-cyclopropyl-6-fluoro-2-hydroxybenzoic acid]",30 nM
6,"COc1ccc(Br)cc1S(=O)(=O)Nc1cc(Cl)cc(C(=O)NCCCO)c1O [Example J53, 3-((5-Bromo-2-methoxyphenyl)sulfonamido)-5-chloro-2-hydroxy-N-(3-hydroxypropyl)benzamide]",2070 nM
7,"N#CC1(c2cc(NS(=O)(=O)c3cc(Br)ccc3O)c(O)c(C(=O)N3CC(O)C3)c2)CCC1 [Example J224, 5-Bromo-N-(5-(1-cyanocyclobutyl)-2-hydroxy-3-(3-hydroxyazetidine-1-carbonyl)phenyl)-2-hydroxybenzenesulfonamide]",290 nM
8,"COc1ccc(Br)cc1S(=O)(=O)Nc1cc(Cl)cc(C(=O)NC2CCOC2)c1O (centres unmarked) [Example J60, 3-((5-Bromo-2-methoxyphenyl)sulfonamido)-5-chloro-2-hydroxy-N-(tetrahydrofuran-3-yl)benzamide]",940 nM
9,"N#CC1(c2cc(NS(=O)(=O)c3cc(Br)ccc3O)c(O)c(C(=O)NCC3CCCO3)c2)CCC1 (centres unmarked) [Example J220, 3-((5-Bromo-2-hydroxyphenyl)sulfonamido)-5-(1-cyanocyclobutyl)-2-hydroxy-N-((tetrahydrofuran-2-yl)methyl)benzamide]",1030 nM
10,"COc1ccc(Br)cc1S(=O)(=O)Nc1cc(Cl)cc(C(=O)NCCN)c1O [Example J61, N-(2-Aminoethyl)-3-((5-bromo-2-methoxyphenyl)sulfonamido)-5-chloro-2-hydroxybenzamide]",2680 nM
11,"O=C(O)c1cc(OC(F)(F)F)cc(NS(=O)(=O)c2cc(Br)cc3cccnc23)c1O [Example J161, 3-((6-Bromoquinoline)-8-sulfonamido)-2-hydroxy-5-(trifluoromethoxy)benzoic acid]",350 nM
12,"N#CC1(c2cc(NS(=O)(=O)c3cc(Br)ccc3O)c(O)c(C(=O)NCC3CCCCO3)c2)CCC1 (centres unmarked) [Example J229, 3-((5-Bromo-2-hydroxyphenyl)sulfonamido)-5-(1-cyanocyclobutyl)-2-hydroxy-N-((tetrahydro-2H-pyran-2-yl)methyl)benzamide]",850 nM
13,"COc1ccc(Br)cc1S(=O)(=O)Nc1cc(Cl)cc(C(=O)N2CC(OC)C2)c1O [Example J62, 5-Bromo-N-(5-chloro-2-hydroxy-3-(3-methoxyazetidine-1-carbonyl)phenyl)-2-methoxybenzenesulfonamide]",9360 nM
14,"N#CC1(c2ccc(O)c(NS(=O)(=O)c3cc(Br)ccc3O)c2)CCC1 [JDM-06-030B, 5-Bromo-N-(5-(1-cyanocyclobutyl)-2-hydroxyphenyl)-2-hydroxybenzenesulfonamide]",290 nM
15,"NC(=O)c1cc(C2CC2)cc(NS(=O)(=O)c2cc(Br)ccc2O)c1O [Example J80, 3-((5-Bromo-2-hydroxyphenyl)sulfonamido)-5-cyclopropyl-2-hydroxybenzamide]",1640 nM
16,"Cc1ccsc1-c1cc(NS(=O)(=O)c2cc(Br)ccc2O)c(O)c(C(=O)O)c1 [Example J197, 3-((5-Bromo-2-hydroxyphenyl)sulfonamido)-2-hydroxy-5-(3-methylthiophen-2-yl)benzoic acid]",1930 nM
17,O=S(=O)(Nc1cc(C2CC2)cc(S(=O)(=O)C2CCCO2)c1)c1cc(Br)ccc1O (centres unmarked) [Example S15-2],8620 nM

# The remaining lines, values ahead:
row,Ki,SMILES
1,460 nM,"CCc1cc(Br)cc(S(=O)(=O)Nc2cc(Cl)cc(C(=O)O)c2O)c1O [HCH-11, 3-((5-Bromo-3-ethyl-2-hydroxyphenyl)sulfonamido)-5-chloro-2-hydroxybenzoic acid]"
2,2930 nM,"CNC(=O)c1cc(Cl)cc(NS(=O)(=O)c2cc(Br)ccc2O)c1 [Example S70, 3-((5-Bromo-2-hydroxyphenyl)sulfonamido)-5-chloro-N-methylbenzamide]"
3,500 nM,"CS(=O)(=O)c1cc(Br)cc(NS(=O)(=O)c2cc(Br)cc(OC(F)(F)F)c2O)c1 [Example S3, 5-Bromo-N-(3-bromo-5-(methylsulfonyl)phenyl)-2-hydroxy-3-(trifluoromethoxy)benzenesulfonamide]"
4,190 nM,"NC(=O)[C@H](CO)NC(=O)c1cc(OC(F)(F)F)cc(NS(=O)(=O)c2cc(Br)cc(Cl)c2O)c1O [HCH-56, (S)—N-(1-Amino-3-hydroxy-1-oxopropan-2-yl)-3-((5-bromo-3-chloro-2-hydroxyphenyl)sulfonamido)-2-hydroxy-5-(trifluoromethoxy)benzamide]"
5,210 nM,"CN1CCC(O)(CNC(=O)c2cc(OC(F)(F)F)cc(NS(=O)(=O)c3cc(Br)cc(Cl)c3O)c2O)CC1 [HCH-50, 3-((5-Bromo-3-chloro-2-hydroxyphenyl)sulfonamido)-2-hydroxy-N-((4-hydroxy-1-methylpiperidin-4-yl)methyl)-5-(trifluoromethoxy)benzamide]"
6,770 nM,"CNC(=O)c1cc(Cl)cc(NS(=O)(=O)c2cc(Br)cc(Cl)c2O)c1 [Example S69, 3-((5-Bromo-3-chloro-2-hydroxyphenyl)sulfonamido)-5-chloro-N-methylbenzamide]"
7,240 nM,"COC1CC(NC(=O)c2cc(OC(F)(F)F)cc(NS(=O)(=O)c3cc(Br)cc(Cl)c3O)c2O)C1 (centres unmarked) [HCH-60, 3-((5-Bromo-3-chloro-2-hydroxyphenyl)sulfonamido)-2-hydroxy-N-(3-methoxycyclobutyl)-5-(trifluoromethoxy)benzamide]"
8,170 nM,"O=C(O)c1cc(OC(F)(F)F)cc(NS(=O)(=O)c2cc(Br)cc(OC(F)(F)F)c2O)c1O [HCH-15, 3-((5-Bromo-2-hydroxy-3-(trifluoromethoxy)phenyl)sulfonamido)-2-hydroxy-5-(trifluoromethoxy)benzoic acid]"
9,11700 nM,"CCCc1cc(Br)cc(S(=O)(=O)Nc2cc(Cl)cc([N+](=O)[O-])c2O)c1O [NE10, 5-Bromo-N-(5-chloro-2-hydroxy-3-nitrophenyl)-2-hydroxy-3-propylbenzenesulfonamide]"
10,1030 nM,"CS(=O)(=O)c1cc(NS(=O)(=O)c2cc(Br)ccc2O)cc(C2(C#N)CCC2)c1 [Example S73, 5-bromo-N-(3-(1-cyanocyclobutyl)-5-(methylsulfonyl)phenyl)-2-hydroxybenzenesulfonamide]"
11,850 nM,"CS(=O)(=O)c1cc(Cl)cc(NS(=O)(=O)c2cc(Br)cc(OC(F)(F)F)c2O)c1 [Example S4, 5-Bromo-N-(3-chloro-5-(methylsulfonyl)phenyl)-2-hydroxy-3-(trifluoromethoxy)benzenesulfonamide]"
12,20 nM,O=C(O)c1cc(S(F)(F)(F)(F)F)cc(NS(=O)(=O)c2cc(Br)cc3cccnc23)c1O [Example S68]
13,200 nM,"O=S(=O)(Nc1cc(C2CC2)cc(S(=O)(=O)C2CCCO2)c1)c1cc(Br)cc(Cl)c1O (centres unmarked) [Example S16, 5-Bromo-3-chloro-N-(3-cyclopropyl-5-((tetrahydrofuran-2-yl)sulfonyl)phenyl)-2-hydroxybenzenesulfonamide]"
14,400 nM,"CC(C)N(CCS(=O)(=O)c1cc(Cl)cc(NS(=O)(=O)c2cc(Br)cc(Cl)c2O)c1)C(C)C [Example S37, 5-Bromo-3-chloro-N-(3-chloro-5-((2-(diisopropylamino)ethyl)sulfonyl)phenyl)-2-hydroxybenzenesulfonamide]"
15,320 nM,"CCC(O)CNC(=O)c1cc(OC(F)(F)F)cc(NS(=O)(=O)c2cc(Br)cc(F)c2O)c1O (centres unmarked) [HCH-39, 3-((5-Bromo-3-fluoro-2-hydroxyphenyl)sulfonamido)-2-hydroxy-N-(2-hydroxybutyl)-5-(trifluoromethoxy)benzamide]"
16,160 nM,"CNC(=O)c1cc(S(F)(F)(F)(F)F)cc(NS(=O)(=O)c2cc(Br)cc(Cl)c2O)c1O [Example S63, 3-((5-Bromo-3-chloro-2-hydroxyphenyl)sulfonamido)-2-hydroxy-N-methyl-5-(pentafluoro-λ^6-sulfaneyl)benzamide]"
17,1230 nM,"CS(=O)(=O)c1cc(Cl)cc(NS(=O)(=O)c2cc(Br)ccc2O)c1 [Example S6, 5-Bromo-N-(3-chloro-5-(methylsulfonyl)phenyl)-2-hydroxybenzenesulfonamide]"
18,340 nM,"CCc1cc(Br)cc(S(=O)(=O)Nc2cc(Cl)cc(C(=O)NC(C)C(N)=O)c2O)c1O (centres unmarked) [HCH-59, N-(1-Amino-1-oxopropan-2-yl)-3-((5-bromo-3-ethyl-2-hydroxyphenyl)sulfonamido)-5-chloro-2-hydroxybenzamide]"
